The source of these data is patent US8937091B2 (Japan Science and Technology Agency, priority 2009, dated 2015).

Test [1] relates to SOCE (store operated calcium entry) in CHO cells. Nature of the test: Assay of SOCE (store operated calcium entry)-inhibiting action. It counts as cell-based, Chinese hamster. The following applies: Cricetulus griseus, CHO, CHO cells, thapsigargin, read-out: SOCE level (percentage of inhibition); for inhibition at 10 µM: test compound 10 μmol; for inhibition at 30 µM: test compound 30 μmol; for inhibition at 100 µM: test compound 100 μmol. The procedure, abridged:
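CHO cells in calcium-free BSS received compound, then 1 μM thapsigargin 2 min later to deplete stores; after 9 min, 2 mM calcium chloride (final) added. Percent inhibition of the rise in intracellular calcium determined at various compound concentrations.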

Test [2] relates to IICR (IP3 induced calcium release) in CHO cells. Nature of the test: Assay of IICR (IP3 induced calcium release)-inhibiting action. It counts as cell-based, Chinese hamster. The following applies: Cricetulus griseus, CHO, CHO cells, 10 μM ATP, read-out: IICR level (percentage of inhibition); for inhibition at 10 µM: test compound 10 μmol; for inhibition at 30 µM: test compound 30 μmol; for inhibition at 100 µM: test compound 100 μmol. The procedure, abridged:
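Inhibition (%) of the intracellular calcium increase triggered by 10 μM ATP, measured in CHO cells in BSS with calcium. Compound given 1 min after the buffer exchange and 2 min before ATP; values reported per compound concentration.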

Broadly, the inhibition is the change of the read-out against control, counted positive when it falls. `CC(C)(C)N(CCC(=O)c1ccc(Cl)cc1)Cc1ccccc1` [Example 305, 2-(N-t-butyl-N-benzyl)aminoethyl-4-chlorophenylketone]: in test [1], the inhibition at 10 µM is 20%, the inhibition at 30 µM stood at 20% and the inhibition at 100 µM worked out at 60%. Further, in test [2], the inhibition at 10 µM amounted to 60%, the inhibition at 30 µM turned out to be 70% and the inhibition at 100 µM was determined as 50%.

For `CC(C)(C)N(CCC(=O)c1nccs1)Cc1ccccc1` [Example 256, 2-(N-benzyl-t-butyl)aminoethyl-2-thiazolylketone], in test [1], the inhibition at 10 µM turned out to be 0%, the inhibition at 30 µM worked out at 0% and the inhibition at 100 µM was 10%. In addition, in test [2], the inhibition at 10 µM is 50%, the inhibition at 30 µM stood at 90% and the inhibition at 100 µM amounted to 80%.

For `CC(C)N(CCO)CCC(=O)c1cnccn1` [Example 151, 2-(N-isopropylhydroxyethyl)aminoethyl-2-pyrazylketone], in test [1], the inhibition at 10 µM amounted to 0%, the inhibition at 30 µM came to 0% and the inhibition at 100 µM was 0%. In test [2], the inhibition at 10 µM was determined as 20%, the inhibition at 30 µM worked out at 20% and the inhibition at 100 µM is 50%.

As for `CN(CCC(=O)c1ccccn1)Cc1ccccc1` [Example 77, 2-(N-methylbenzyl)aminoethyl-2-pyridylketone], in test [1], the inhibition at 10 µM came to 0%, the inhibition at 30 µM stood at 20% and the inhibition at 100 µM came out at 30%. In test [2], the inhibition at 10 µM was 0%, the inhibition at 30 µM was determined as 10% and the inhibition at 100 µM turned out to be 30%.

`CC(C)N(CCC(=O)n1nnc2ccccc21)Cc1ccccc1` [Example 295, 2-(N-isopropylbenzyl)aminoethyl-1-benzotriazoketone]: in test [1], the inhibition at 10 µM is 0%, the inhibition at 30 µM is 0% and the inhibition at 100 µM turned out to be 0%. Further, in test [2], the inhibition at 10 µM worked out at 80%, the inhibition at 30 µM was found to be 70% and the inhibition at 100 µM worked out at 60%.

Consider `CN(CCO)CCC(=O)c1ccc(Br)s1` [Example 328, 2-(N-hydroxyethylmethyl)aminoethyl-5-bromo-2-thienylketone], for which, in test [1], the inhibition at 10 µM amounted to 10%, the inhibition at 30 µM was 10% and the inhibition at 100 µM was determined as 0%. In test [2], the inhibition at 10 µM was found to be 0%, the inhibition at 30 µM stood at 10% and the inhibition at 100 µM was determined as 80%.

As to `N#Cc1ccc(C(=O)CCNCCSSCCNCCC(=O)c2ccc(C#N)cc2)cc1` [Example 398], in test [1], the inhibition at 10 µM was 20%, the inhibition at 30 µM stood at 40% and the inhibition at 100 µM was 50%. Moreover, in test [2], the inhibition at 10 µM is 1%, the inhibition at 30 µM is 44% and the inhibition at 100 µM worked out at 80%.

As to `O=C(CCNCCSSCCNCCC(=O)c1ccc(I)s1)c1ccc(I)s1` [Example 410], in test [1], the inhibition at 10 µM is 20%, the inhibition at 30 µM was found to be 40% and the inhibition at 100 µM was 50%. Further, in test [2], the inhibition at 10 µM came to 59%, the inhibition at 30 µM worked out at 65% and the inhibition at 100 µM is 88%.

Take `CC(CN(CCO)CCO)C(=O)c1ccc(F)cc1` (centres unmarked) [Example 160, 2-(N-bis(hydroxyethyl))amino-1-methylethyl-4-fluorophenylketone]: in test [1], the inhibition at 10 µM was 0%, the inhibition at 30 µM came out at 20% and the inhibition at 100 µM came to 60%. In test [2], the inhibition at 10 µM is 0%, the inhibition at 30 µM was found to be 0% and the inhibition at 100 µM came out at 20%.

Take `CC(C)(C)N(CCO)CCC(=O)c1ccncc1` [Example 30, 2-(N-t-butyl-2-hydroxyethyl)aminoethyl-4-pyridylketone]: in test [1], the inhibition at 10 µM came out at 0%, the inhibition at 30 µM stood at 0% and the inhibition at 100 µM was 0%. Also, in test [2], the inhibition at 10 µM was 20%, the inhibition at 30 µM was 10% and the inhibition at 100 µM was 10%.

In the case of `Cc1cccc2cc(C(=O)CCN(C)Cc3ccccc3)ccc12` [Example 78, 2-(N-methylbenzyl)aminoethyl-5-methyl-2-naphthylketone], in test [1], the inhibition at 10 µM is 10%, the inhibition at 30 µM is 20% and the inhibition at 100 µM came to 50%. Further, in test [2], the inhibition at 10 µM is 20%, the inhibition at 30 µM was 70% and the inhibition at 100 µM is 90%.

In the case of `O=C(CCNCCCO)c1ccc(Br)s1` [Example 352, 2-(3-hydroxypropyl)aminoethyl-5-bromo-2-thienylketone], in test [1], the inhibition at 10 µM is 0%, the inhibition at 30 µM was 0% and the inhibition at 100 µM is 34%. Besides, in test [2], the inhibition at 10 µM came out at 30%, the inhibition at 30 µM was 0% and the inhibition at 100 µM was 0%.

Regarding `CCCCN(CCO)CCC(=O)c1nc(C)cs1` [Example 264, 2-(N-butyl-2-hydroxyethyl)aminoethyl-4-methyl-2-thiazolylketone], in test [1], the inhibition at 10 µM is 0%, the inhibition at 30 µM came out at 0% and the inhibition at 100 µM was found to be 10%. In addition, in test [2], the inhibition at 10 µM is 0%, the inhibition at 30 µM is 0% and the inhibition at 100 µM turned out to be 70%.

`CCCCN(CCO)CCC(=O)c1ccccn1` [Example 250]: in test [1], the inhibition at 10 µM stood at 0%, the inhibition at 30 µM was determined as 0% and the inhibition at 100 µM came to 0%. Also, in test [2], the inhibition at 10 µM turned out to be 0%, the inhibition at 30 µM came out at 10% and the inhibition at 100 µM was 20%.

For the molecule `CC(C)N(CCO)CCC(=O)c1ccc(-c2ccccc2)cc1` [Example 298, 2-(N-2-hydroxyethylisopropyl)aminoethyl-4-biphenylketone], in test [1], the inhibition at 10 µM is 20%, the inhibition at 30 µM was determined as 40% and the inhibition at 100 µM came to 50%. Moreover, in test [2], the inhibition at 10 µM stood at 60%, the inhibition at 30 µM was 50% and the inhibition at 100 µM amounted to 60%.

As to `O=C(CCNCCN(CCO)CCC(=O)c1ccc(Br)s1)c1ccc(Br)s1` [Example 354, 2-(N-5-bromothionylethylaminoethyl-N-hydroxyethyl)aminoethyl-5-bromo-2-thienylketone], in test [1], the inhibition at 10 µM is 0%, the inhibition at 30 µM is 10% and the inhibition at 100 µM is 10%. In test [2], the inhibition at 10 µM was 0%, the inhibition at 30 µM is 0% and the inhibition at 100 µM came to 60%.

As to `NCCN(CCO)CCC(=O)c1ccc(Br)s1` [Example 334, 2-(N-2-hydroxyethyl-N-2-aminoethyl)aminoethyl-5-bromo-2-thienylketone], in test [1], the inhibition at 10 µM worked out at 30%, the inhibition at 30 µM is 30% and the inhibition at 100 µM was determined as 40%. In test [2], the inhibition at 10 µM came out at 20%, the inhibition at 30 µM was 0% and the inhibition at 100 µM was 60%.

`O=C(CCN(CCO)CCO)c1ccc(I)s1` [Example 320]: in test [1], the inhibition at 10 µM turned out to be 20%, the inhibition at 30 µM amounted to 40% and the inhibition at 100 µM worked out at 50%. Further, in test [2], the inhibition at 10 µM amounted to 0%, the inhibition at 30 µM came to 0% and the inhibition at 100 µM amounted to 70%.

With `Cc1ccc(C(=O)CCN(Cc2ccccc2)Cc2ccccc2)o1` [Example 138, 2-(N-dibenzyl)aminoethyl-5-methyl-2-furylketone], in test [1], the inhibition at 10 µM stood at 0%, the inhibition at 30 µM was found to be 10% and the inhibition at 100 µM is 20%. Moreover, in test [2], the inhibition at 10 µM is 0%, the inhibition at 30 µM was 0% and the inhibition at 100 µM was 10%.

Turning to `Cc1ccc(C(=O)CCN(C)CCO)o1` [Example 140, 2-(N-methylhydroxyethyl)aminoethyl-5-methyl-2-furylketone], in test [1], the inhibition at 10 µM came to 0%, the inhibition at 30 µM is 0% and the inhibition at 100 µM was determined as 0%. In addition, in test [2], the inhibition at 10 µM is 20%, the inhibition at 30 µM is 20% and the inhibition at 100 µM amounted to 30%.

Consider `O=C(CCN(c1ccccc1)c1ccccc1)c1ccccn1` [Example 185, 2-(N,N-diphenyl)aminoethyl-2-pyridylketone], for which, in test [1], the inhibition at 10 µM was 0%, the inhibition at 30 µM was 10% and the inhibition at 100 µM amounted to 20%. Further, in test [2], the inhibition at 10 µM amounted to 0%, the inhibition at 30 µM is 10% and the inhibition at 100 µM came to 20%.

On to `O=C(CCNCCc1cnc[nH]1)c1ccc(Br)s1` [Example 364, 2-(4-imidazolylethyl)aminoethyl-5-bromo-2-thienylketone], for which, in test [1], the inhibition at 10 µM came to 24%, the inhibition at 30 µM was found to be 49% and the inhibition at 100 µM stood at 70%. Also, in test [2], the inhibition at 10 µM came out at 0%, the inhibition at 30 µM was found to be 0% and the inhibition at 100 µM was 40%.

For the molecule `O=C(CCNCCCO)c1cnccn1` [Example 270, 2-(N-hydroxypropyl)aminoethyl-2-pyrazylketone], in test [1], the inhibition at 30 µM came to 10% and the inhibition at 100 µM came to 30%. In test [2], the inhibition at 10 µM was determined as 20%, the inhibition at 30 µM is 0% and the inhibition at 100 µM was determined as 10%.
